Experimental data published in patent US20210254272A1, “TEXTILES HAVING ANTIMICROBIAL PROPERTIES” (Livinguard AG, priority 2015, published 2021).

Test system: E. coli (ATCC 25922)
Assay: AATCC Test Method 100-2012 antibacterial activity of the treated textile, after 25 washes and 12 abrasion cycles, contact time 60 minutes
Format: cell-based
Details: for Performance Test-Log reduction of antimicrobial performance: pad process, 2 min
Protocol: The antibacterial activity of the textile was tested in accordance with AATCC Test Method 100-2012. Prior to the test, the fabric was cut into coupons of 2×4 inches and washed separately 25 times, and exposed to 12 abrasion cycles, as per US EPA protocol 90072PA4 (described further below). The tests were made against E. coli (ATCC 25922). Contact time was 60 minutes, after inoculating with 10^8 CFU per coupon.

## CCCC1COC(Cn2cncn2)(c2ccc(Cl)cc2Cl)O1 (stereo not shown) [Propiconazole, propiconazole]
Single agent 5 gm/lit, curing 180° C.
  Performance Test-Log reduction of antimicrobial performance: 0.98 Log
Single agent 10 gm/lit, curing 120° C.
  Performance Test-Log reduction of antimicrobial performance: 0.25 Log
Single agent 10 gm/lit, curing 140° C.
  Performance Test-Log reduction of antimicrobial performance: 0.38 Log
Single agent 10 gm/lit, curing 150° C.
  Performance Test-Log reduction of antimicrobial performance: 0.42 Log
Single agent 10 gm/lit, curing 160° C.
  Performance Test-Log reduction of antimicrobial performance: 0.56 Log
Single agent 10 gm/lit, curing 180° C.
  Performance Test-Log reduction of antimicrobial performance: 2.11 Log
Pure cotton fabric, exhaust 80° C., 60 min, dosage 0.1% o.w.f
  Log reduction of antimicrobial performance: 0.63 Log
Pure cotton fabric, exhaust 80° C., 60 min, dosage 0.2% o.w.f
  Log reduction of antimicrobial performance: 1.45 Log
Pure cotton fabric, exhaust 80° C., 60 min, dosage 0.5% o.w.f
  Log reduction of antimicrobial performance: 1.95 Log
Pure cotton fabric, exhaust 80° C., 60 min, dosage 0.8% o.w.f
  Log reduction of antimicrobial performance: 2.34 Log
Pure cotton fabric, exhaust 80° C., 60 min, dosage 1.0% o.w.f
  Log reduction of antimicrobial performance: 2.85 Log
Pure cotton, exhaust 80° C., 1% o.w.f, 60 min, curing 180° C., curing dwell time 0.5 min
  Log reduction of antimicrobial performance: 0.4 Log
Pure cotton, exhaust 80° C., 1% o.w.f, 60 min, curing 180° C., curing dwell time 1.0 min
  Log reduction of antimicrobial performance: 0.8 Log
Pure cotton, exhaust 80° C., 1% o.w.f, 60 min, curing 180° C., curing dwell time 1.5 min
  Log reduction of antimicrobial performance: 2.2 Log
Pure cotton, exhaust 80° C., 1% o.w.f, 60 min, curing 180° C., curing dwell time 2.0 min
  Log reduction of antimicrobial performance: 2.8 Log
Pure cotton, exhaust 80° C., 1% o.w.f, 60 min, curing 180° C., curing dwell time 2.5 min
  Log reduction of antimicrobial performance: 2.3 Log
Pure cotton, exhaust 80° C., 1% o.w.f, 60 min, curing 180° C., curing dwell time 3.0 min
  Log reduction of antimicrobial performance: 1.2 Log
Pure polyester fabric, exhaust 80° C., 60 min, curing 180° C., curing dwell time 0.5 min
  Log reduction of antimicrobial performance: 0.4 Log
Pure polyester fabric, exhaust 80° C., 60 min, curing 180° C., curing dwell time 1.0 min
  Log reduction of antimicrobial performance: 0.8 Log
Pure polyester fabric, exhaust 80° C., 60 min, curing 180° C., curing dwell time 1.5 min
  Log reduction of antimicrobial performance: 2.2 Log
Pure polyester fabric, exhaust 80° C., 60 min, curing 180° C., curing dwell time 2.0 min
  Log reduction of antimicrobial performance: 2.74 Log
Pure polyester fabric, exhaust 80° C., 60 min, curing 180° C., curing dwell time 2.5 min
  Log reduction of antimicrobial performance: 2.35 Log
Pure polyester fabric, exhaust 80° C., 60 min, curing 180° C., curing dwell time 3.0 min
  Log reduction of antimicrobial performance: 1.2 Log
Pure polyester fabric, exhaust 80° C., 60 min, dosage 0.1% o.w.f
  Log reduction of antimicrobial performance: 0.57 Log
Pure polyester fabric, exhaust 80° C., 60 min, dosage 0.2% o.w.f
  Log reduction of antimicrobial performance: 1.35 Log
Pure polyester fabric, exhaust 80° C., 60 min, dosage 0.5% o.w.f
  Log reduction of antimicrobial performance: 1.67 Log
Pure polyester fabric, exhaust 80° C., 60 min, dosage 0.8% o.w.f
  Log reduction of antimicrobial performance: 2.14 Log
Pure polyester fabric, exhaust 80° C., 60 min, dosage 1.0% o.w.f
  Log reduction of antimicrobial performance: 2.73 Log
Solution dosage 0.10% o.w.f, exhaust temperature 40° C., process time 60 min
  Log reduction of antimicrobial performance: 0 Log
Solution dosage 0.10% o.w.f, exhaust temperature 60° C., process time 60 min
  Log reduction of antimicrobial performance: 0 Log
Solution dosage 0.10% o.w.f, exhaust temperature 65° C., process time 60 min
  Log reduction of antimicrobial performance: 0 Log
Solution dosage 0.10% o.w.f, exhaust temperature 70° C., process time 60 min
  Log reduction of antimicrobial performance: 0 Log
Solution dosage 0.10% o.w.f, exhaust temperature 75° C., process time 60 min
  Log reduction of antimicrobial performance: 0.59 Log
Solution dosage 0.10% o.w.f, exhaust temperature 80° C., process time 60 min
  Log reduction of antimicrobial performance: 0.56 Log
Solution dosage 0.10% o.w.f, exhaust temperature 85° C., process time 60 min
  Log reduction of antimicrobial performance: 0.83 Log
Solution dosage 0.10% o.w.f, exhaust temperature 90° C., process time 60 min
  Log reduction of antimicrobial performance: 0.83 Log
Solution dosage 0.10% o.w.f, exhaust temperature 95° C., process time 60 min
  Log reduction of antimicrobial performance: 0.83 Log
Solution dosage 0.20% o.w.f, exhaust temperature 40° C., process time 60 min
  Log reduction of antimicrobial performance: 0 Log
Solution dosage 0.20% o.w.f, exhaust temperature 60° C., process time 60 min
  Log reduction of antimicrobial performance: 0.08 Log
Solution dosage 0.20% o.w.f, exhaust temperature 65° C., process time 60 min
  Log reduction of antimicrobial performance: 0.09 Log
Solution dosage 0.20% o.w.f, exhaust temperature 70° C., process time 60 min
  Log reduction of antimicrobial performance: 0.12 Log
Solution dosage 0.20% o.w.f, exhaust temperature 75° C., process time 60 min
  Log reduction of antimicrobial performance: 0.89 Log
Solution dosage 0.20% o.w.f, exhaust temperature 80° C., process time 60 min
  Log reduction of antimicrobial performance: 1.34 Log
Solution dosage 0.20% o.w.f, exhaust temperature 85° C., process time 60 min
  Log reduction of antimicrobial performance: 1.45 Log
Solution dosage 0.20% o.w.f, exhaust temperature 90° C., process time 60 min
  Log reduction of antimicrobial performance: 1.45 Log
Solution dosage 0.20% o.w.f, exhaust temperature 95° C., process time 60 min
  Log reduction of antimicrobial performance: 1.45 Log
Solution dosage 0.50% o.w.f, exhaust temperature 40° C., process time 60 min
  Log reduction of antimicrobial performance: 0 Log
Solution dosage 0.50% o.w.f, exhaust temperature 60° C., process time 60 min
  Log reduction of antimicrobial performance: 0.12 Log
Solution dosage 0.50% o.w.f, exhaust temperature 65° C., process time 60 min
  Log reduction of antimicrobial performance: 0.13 Log
Solution dosage 0.50% o.w.f, exhaust temperature 70° C., process time 60 min
  Log reduction of antimicrobial performance: 0.19 Log
Solution dosage 0.50% o.w.f, exhaust temperature 75° C., process time 60 min
  Log reduction of antimicrobial performance: 1.12 Log
Solution dosage 0.50% o.w.f, exhaust temperature 80° C., process time 60 min
  Log reduction of antimicrobial performance: 1.98 Log
Solution dosage 0.50% o.w.f, exhaust temperature 85° C., process time 60 min
  Log reduction of antimicrobial performance: 2.04 Log
Solution dosage 0.50% o.w.f, exhaust temperature 90° C., process time 60 min
  Log reduction of antimicrobial performance: 2.06 Log
Solution dosage 0.50% o.w.f, exhaust temperature 95° C., process time 60 min
  Log reduction of antimicrobial performance: 2.06 Log
Solution dosage 0.80% o.w.f, exhaust temperature 40° C., process time 60 min
  Log reduction of antimicrobial performance: 0 Log
Solution dosage 0.80% o.w.f, exhaust temperature 60° C., process time 60 min
  Log reduction of antimicrobial performance: 0.18 Log
Solution dosage 0.80% o.w.f, exhaust temperature 65° C., process time 60 min
  Log reduction of antimicrobial performance: 0.19 Log
Solution dosage 0.80% o.w.f, exhaust temperature 70° C., process time 60 min
  Log reduction of antimicrobial performance: 0.23 Log
Solution dosage 0.80% o.w.f, exhaust temperature 75° C., process time 60 min
  Log reduction of antimicrobial performance: 1.35 Log
Solution dosage 0.80% o.w.f, exhaust temperature 80° C., process time 60 min
  Log reduction of antimicrobial performance: 2.34 Log
Solution dosage 0.80% o.w.f, exhaust temperature 85° C., process time 60 min
  Log reduction of antimicrobial performance: 2.56 Log
Solution dosage 0.80% o.w.f, exhaust temperature 90° C., process time 60 min
  Log reduction of antimicrobial performance: 2.61 Log
Solution dosage 0.80% o.w.f, exhaust temperature 95° C., process time 60 min
  Log reduction of antimicrobial performance: 2.61 Log
Solution dosage 1.00% o.w.f, exhaust temperature 40° C., process time 60 min
  Log reduction of antimicrobial performance: 0 Log
Solution dosage 1.00% o.w.f, exhaust temperature 60° C., process time 60 min
  Log reduction of antimicrobial performance: 0.25 Log
Solution dosage 1.00% o.w.f, exhaust temperature 65° C., process time 60 min
  Log reduction of antimicrobial performance: 0.26 Log
Solution dosage 1.00% o.w.f, exhaust temperature 70° C., process time 60 min
  Log reduction of antimicrobial performance: 0.32 Log
Solution dosage 1.00% o.w.f, exhaust temperature 75° C., process time 60 min
  Log reduction of antimicrobial performance: 1.42 Log
Solution dosage 1.00% o.w.f, exhaust temperature 80° C., process time 60 min
  Log reduction of antimicrobial performance: 2.87 Log
Solution dosage 1.00% o.w.f, exhaust temperature 85° C., process time 60 min
  Log reduction of antimicrobial performance: 2.89 Log
Solution dosage 1.00% o.w.f, exhaust temperature 90° C., process time 60 min
  Log reduction of antimicrobial performance: 2.91 Log
Solution dosage 1.00% o.w.f, exhaust temperature 95° C., process time 60 min
  Log reduction of antimicrobial performance: 2.91 Log
